Where a name gives a salt, the structure may show the parent alone.
Experiment: stability of oxybutynin hydrochloride composition during terminal vapor sterilization in prefilled piston syringes

further impurities after vapor sterilization (1 mg/ml, pH 4.0, polypropylene syringes with piston plugs of conventional rubber material, vapor sterilization): exceeding 0.5%
stability during thermal sterilization (in words) (aqueous composition, polypropylene (disposable) syringes, piston plugs and closing caps of commonly used rubber materials): high instability or incompatibility
SMILES: CCN(CC)CC#CCOC(=O)C(O)(c1ccccc1)C1CCCCC1 (centres unmarked) [oxybutynin hydrochloride, 4-diethylaminobut-2-inyl-2-cyclohexyl-2-hydroxy-2-phenyl ethanoate]

From patent US20210308308A1, “SYRINGE AND KIT FOR INTRAVESICAL USE” (Farco-Pharma GmbH, priority 2020, published 2021)
